Measured values from ChEMBL document CHEMBL4680266, “Iodoquinazolinones bearing benzenesulfonamide as human carbonic anhydrase I, II, IX and XII inhibitors: Synthesis, biological evaluation and radiosensitizing activity” (Eur J Med Chem, 2020).

Tests used:
Carbonic anhydrase 9 = Carbonic anhydrase 9 (Homo sapiens, UniProt Q16790); experiment: Inhibition of recombinant human carbonic anhydrase 9 incubated for 15 mins prior to testing measured for 10 to 100 secs by phenol red-based stopped-flow CO2 hydration assay
WI-38 [1] = experiment: Cytotoxicity against human WI-38 cells assessed as reduction in cell viability by MTT assay; type: cell-based
MCF7 [2] = experiment: Cytotoxicity against human MCF7 cells assessed as reduction in cell viability by MTT assay; type: functional, cell-based
HepG2 [3] = experiment: Cytotoxicity against human HepG2 cells assessed as reduction in cell viability irradiated with 8 Gy gamma radiation and measured after 24 hrs by MTT assay; type: functional, cell-based; conditions: HepG2, light or radiation study
HCT-116 [4] = experiment: Cytotoxicity against human HCT-116 cells assessed as reduction in cell viability irradiated with 8 Gy gamma radiation and measured after 24 hrs by MTT assay; type: functional, cell-based; conditions: HCT-116, light or radiation study
HCT-116 [5] = experiment: Cytotoxicity against human HCT-116 cells assessed as reduction in cell viability by MTT assay; type: functional, cell-based
MCF7 [6] = experiment: Cytotoxicity against human MCF7 cells assessed as reduction in cell viability irradiated with 8 Gy gamma radiation and measured after 24 hrs by MTT assay; type: functional, cell-based; conditions: MCF7, light or radiation study
WI-38 [7] = experiment: Cytotoxicity against human WI-38 cells assessed as reduction in cell viability irradiated with 8 Gy gamma radiation and measured after 24 hrs by MTT assay; type: cell-based; conditions: WI-38, light or radiation study
HepG2 [8] = experiment: Cytotoxicity against human HepG2 cells assessed as reduction in cell viability by MTT assay; type: functional, cell-based

Row | Ki (Carbonic anhydrase 9) [nM] | Structure (SMILES) | other results
1 | 73.2 | COc1ccc(NC(=O)CSc2nc3ccc(I)cc3c(=O)n2-c2ccc(S(N)(=O)=O)cc2)cc1 | 
2 | 2230 | NS(=O)(=O)c1ccc(-n2c(S)nc3ccc(I)cc3c2=O)cc1 | 
3 | 29.1 | CCc1ccccc1NC(=O)CSc1nc2ccc(I)cc2c(=O)n1-c1ccc(S(N)(=O)=O)cc1 | IC50 (WI-38 [1]): 5710 nM; IC50 (MCF7 [2]): 3070 nM; IC50 (HepG2 [3]): 41 nM; IC50 (HCT-116 [4]): 19 nM; IC50 (HCT-116 [5]): 1940 nM; IC50 (MCF7 [6]): 31 nM; IC50 (WI-38 [7]): 3140 nM; IC50 (HepG2 [8]): 1780 nM
4 | 34.5 | CCOc1ccc(NC(=O)CSc2nc3ccc(I)cc3c(=O)n2-c2ccc(S(N)(=O)=O)cc2)cc1 | 
5 | 55.2 | CCc1cccc(NC(=O)CSc2nc3ccc(I)cc3c(=O)n2-c2ccc(S(N)(=O)=O)cc2)c1 | 
6 | 59.1 | Cc1cc([N+](=O)[O-])ccc1NC(=O)CSc1nc2ccc(I)cc2c(=O)n1-c1ccc(S(N)(=O)=O)cc1 | 
7 | 337 | NS(=O)(=O)c1ccc(-n2c(SCC(=O)Nc3ccccc3)nc3ccc(I)cc3c2=O)cc1 | 
8 | 67.3 | CCc1ccc(NC(=O)CSc2nc3ccc(I)cc3c(=O)n2-c2ccc(S(N)(=O)=O)cc2)cc1 | 
9 | 29.1 | COc1cc(NC(=O)CSc2nc3ccc(I)cc3c(=O)n2-c2ccc(S(N)(=O)=O)cc2)cc(OC)c1 | 
10 | 91.7 | Cc1ccc(NC(=O)CSc2nc3ccc(I)cc3c(=O)n2-c2ccc(S(N)(=O)=O)cc2)cc1 | 
11 | 429 | Cc1ccccc1NC(=O)CSc1nc2ccc(I)cc2c(=O)n1-c1ccc(S(N)(=O)=O)cc1 | 
12 | 244 | Cc1cccc(NC(=O)CSc2nc3ccc(I)cc3c(=O)n2-c2ccc(S(N)(=O)=O)cc2)c1 | 
13 | 90.3 | Cc1cccc([N+](=O)[O-])c1NC(=O)CSc1nc2ccc(I)cc2c(=O)n1-c1ccc(S(N)(=O)=O)cc1 | 
14 | 30.4 | COc1cc(NC(=O)CSc2nc3ccc(I)cc3c(=O)n2-c2ccc(S(N)(=O)=O)cc2)cc(OC)c1OC | 
15 | 46.9 | NS(=O)(=O)c1ccc(-n2c(SCC(=O)Nc3ccc([N+](=O)[O-])cc3[N+](=O)[O-])nc3ccc(I)cc3c2=O)cc1 | 
